Experimental data from PubChem BioAssay (NCI).
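Cultured in 96-well plates, cells were exposed to test compound for 48 hours across five concentrations. TGI marks complete inhibition of growth.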

What was measured:
Experiment in all cases: NCI anticancer screen, dose series, 48 h
HS 578T breast = system: HS 578T breast
COLO 205 colon = system: COLO 205 colon
KM12 colon = system: KM12 colon
SW-620 colon = system: SW-620 colon
OVCAR-3 ovarian = system: OVCAR-3 ovarian
BT-549 breast = system: BT-549 breast
UO-31 renal = system: UO-31 renal
HOP-62 NSCLC = system: HOP-62 NSCLC
MDA-N = system: MDA-N
HCT-116 colon = system: HCT-116 colon
SN12C renal = system: SN12C renal
MCF7 breast = system: MCF7 breast
OVCAR-4 ovarian = system: OVCAR-4 ovarian
786-0 renal = system: 786-0 renal
SK-OV-3 ovarian = system: SK-OV-3 ovarian
UACC-62 melanoma = system: UACC-62 melanoma
NCI-H23 lung = system: NCI-H23 lung
K-562 leukemia = system: K-562 leukemia
UACC-257 melanoma = system: UACC-257 melanoma
RPMI-8226 leukemia = system: RPMI-8226 leukemia
A549 NSCLC = system: A549 NSCLC
SK-MEL-5 melanoma = system: SK-MEL-5 melanoma
SF-295 CNS = system: SF-295 CNS
ACHN renal = system: ACHN renal
LOX IMVI melanoma = system: LOX IMVI melanoma
T-47D breast = system: T-47D breast
SF-268 CNS = system: SF-268 CNS
RXF 393 renal = system: RXF 393 renal
PC-3 prostate = system: PC-3 prostate
HCT-15 colon = system: HCT-15 colon
HL-60(TB) leukemia = system: HL-60(TB) leukemia
M14 melanoma = system: M14 melanoma
HT29 colon = system: HT29 colon
MDA-MB-435 = system: MDA-MB-435
OVCAR-8 ovarian = system: OVCAR-8 ovarian
TK-10 renal = system: TK-10 renal
NCI/ADR-RES ovarian = system: NCI/ADR-RES ovarian
NCI-H460 lung = system: NCI-H460 lung
CAKI-1 renal = system: CAKI-1 renal
OVCAR-5 ovarian = system: OVCAR-5 ovarian
MALME-3M melanoma = system: MALME-3M melanoma
SF-539 CNS = system: SF-539 CNS
CCRF-CEM leukemia = system: CCRF-CEM leukemia
SNB-19 CNS = system: SNB-19 CNS
EKVX NSCLC = system: EKVX NSCLC
HOP-92 NSCLC = system: HOP-92 NSCLC
IGROV1 ovarian = system: IGROV1 ovarian
U251 CNS = system: U251 CNS
NCI-H522 lung = system: NCI-H522 lung
A498 renal = system: A498 renal
SNB-75 CNS = system: SNB-75 CNS
DU-145 prostate = system: DU-145 prostate
SR leukemia = system: SR leukemia
NCI-H226 lung = system: NCI-H226 lung
MOLT-4 leukemia = system: MOLT-4 leukemia
SK-MEL-2 melanoma = system: SK-MEL-2 melanoma

With `O=C1/C(=C/C=C/c2ccccc2)N=C(c2ccccc2)N1c1ccc(S(=O)(=O)Nc2nccs2)cc1` the TGI (HS 578T breast) was > 100 µM, the TGI (COLO 205 colon) was 35.5 µM and the TGI (KM12 colon) was > 100 µM. For the same molecule, the TGI (SW-620 colon) was > 100 µM, the TGI (OVCAR-3 ovarian) was 48.2 µM and the TGI (BT-549 breast) was 61.4 µM. For the same molecule, the TGI (UO-31 renal) was 29.9 µM, the TGI (HOP-62 NSCLC) was > 100 µM and the TGI (MDA-N) was > 100 µM. The TGI (HCT-116 colon) was > 100 µM, the TGI (SN12C renal) was > 100 µM and the TGI (MCF7 breast) was > 100 µM. The TGI (OVCAR-4 ovarian) was > 100 µM, the TGI (786-0 renal) was > 100 µM and the TGI (SK-OV-3 ovarian) was 85.2 µM. The TGI (UACC-62 melanoma) was 61.7 µM, the TGI (NCI-H23 lung) was 63.8 µM and the TGI (K-562 leukemia) was > 100 µM. For the same molecule, the TGI (UACC-257 melanoma) was > 100 µM, the TGI (RPMI-8226 leukemia) was 68.2 µM and the TGI (A549 NSCLC) was > 100 µM. For the same molecule, the TGI (SK-MEL-5 melanoma) was 54 µM, the TGI (SF-295 CNS) was > 100 µM and the TGI (ACHN renal) was 34.5 µM. For the same molecule, the TGI (LOX IMVI melanoma) was 55.1 µM, the TGI (T-47D breast) was > 100 µM and the TGI (SF-268 CNS) was 39.8 µM. The TGI (RXF 393 renal) was 30.1 µM, the TGI (PC-3 prostate) was > 100 µM and the TGI (HCT-15 colon) was > 100 µM. For the same molecule, the TGI (HL-60(TB) leukemia) was > 100 µM, the TGI (M14 melanoma) was > 100 µM and the TGI (HT29 colon) was 49.8 µM. The TGI (MDA-MB-435) was > 100 µM, the TGI (OVCAR-8 ovarian) was > 100 µM and the TGI (TK-10 renal) was > 100 µM. For the same molecule, the TGI (NCI/ADR-RES ovarian) was > 100 µM, the TGI (NCI-H460 lung) was > 100 µM and the TGI (CAKI-1 renal) was > 100 µM. For the same molecule, the TGI (OVCAR-5 ovarian) was > 100 µM, the TGI (MALME-3M melanoma) was > 100 µM and the TGI (SF-539 CNS) was 45.9 µM. For the same molecule, the TGI (CCRF-CEM leukemia) was > 100 µM, the TGI (SNB-19 CNS) was > 100 µM and the TGI (EKVX NSCLC) was 84.7 µM. For the same molecule, the TGI (HOP-92 NSCLC) was > 100 µM, the TGI (IGROV1 ovarian) was 44.5 µM and the TGI (U251 CNS) was 59.3 µM. The TGI (NCI-H522 lung) was 36.6 µM, the TGI (A498 renal) was > 100 µM and the TGI (SNB-75 CNS) was > 100 µM. For the same molecule, the TGI (DU-145 prostate) was > 100 µM, the TGI (SR leukemia) was > 100 µM and the TGI (NCI-H226 lung) was 55.5 µM. For the same molecule, the TGI (MOLT-4 leukemia) was > 100 µM and the TGI (SK-MEL-2 melanoma) was 86.6 µM.
